We go through 20 molecules from patent US12673961B2 (Agios Pharmaceuticals, Inc., priority 2022, dated 2026).

For the assay, the target named is T1, human PAH with the R408W mutation (Homo sapiens, UniProt P00439, R408W).
T1 construct: expressed in transfected cells
T1 sequence (P00439 1-452 R408W): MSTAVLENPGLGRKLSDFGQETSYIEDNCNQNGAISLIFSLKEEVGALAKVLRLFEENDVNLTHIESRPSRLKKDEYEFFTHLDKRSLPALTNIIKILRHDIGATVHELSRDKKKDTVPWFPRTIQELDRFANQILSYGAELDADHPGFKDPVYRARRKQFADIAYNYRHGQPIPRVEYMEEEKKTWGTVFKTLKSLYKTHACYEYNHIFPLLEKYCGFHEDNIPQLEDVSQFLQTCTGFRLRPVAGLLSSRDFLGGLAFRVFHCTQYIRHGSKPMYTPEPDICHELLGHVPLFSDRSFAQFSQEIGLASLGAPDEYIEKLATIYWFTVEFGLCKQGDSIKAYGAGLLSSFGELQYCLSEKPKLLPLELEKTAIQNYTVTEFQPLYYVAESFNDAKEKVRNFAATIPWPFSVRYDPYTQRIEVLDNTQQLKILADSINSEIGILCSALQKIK
The experiment in a line: Cell Based Phenylalanine Flux Assay.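 Further: Ten-point dose curve from 2-fold serial dilutions, run in duplicate at 0.5% DMSO final, tracer step used 20 µM sepiapterin and 800 µM labeled phenylalanine.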 As to conditions: A375 cells expressing human R408W PAH; 24 hrs compound incubation; 13C-Tyrosine by LC-MS; average where tested multiple times; read-out: AC50.
In the case of `O=C(c1nnc(-c2cnccn2)o1)N1CCc2[nH]cnc2[C@H]1c1cc2c(Cl)cccn2n1` [Example 1332, (S)-(4-(4-chloropyrazolo [1,5-a]pyridin-2-yl)-6,7-dihydro-1H-imidazo[4,5-c]pyridin-5(4H)-yl)(5-(pyrazin-2-yl)-1,3,4-oxadiazol-2-yl)methanone], the concentration at half-maximal activity (AC50) was less than 500 nM.

With `O=C(c1nnc(-c2cnccn2)o1)N1CCc2[nH]cnc2[C@@H]1c1cc2c(Cl)cccn2n1` [Example 1333, (R)-(4-(4-chloropyrazolo [1,5-a]pyridin-2-yl)-6,7-dihydro-1H-imidazo[4,5-c]pyridin-5(4H)-yl)(5-(pyrazin-2-yl)-1,3,4-oxadiazol-2-yl)methanone], the AC50 fell in the range of 1000 to 5000 nM.

Take `O=C(c1nnc(-c2cccnc2)o1)N1CCc2[nH]cnc2[C@H]1c1cc2cccc(C(F)(F)F)n2n1` [Example 1340, (S)-(5-(pyridin-3-yl)-1,3,4-oxadiazol-2-yl)(4-(7-(trifluoromethyl)pyrazolo [1,5-a]pyridin-2-yl)-6,7-dihydro-1H-imidazo[4,5-c]pyridin-5(4H)-yl)methanone]: the AC50 fell in the range of 500 to 1000 nM.

For `O=C(c1nnc(-c2cccnc2)o1)N1CCc2[nH]cnc2[C@@H]1c1cc2cccc(C(F)(F)F)n2n1` [Example 1341, (R)-(5-(pyridin-3-yl)-1,3,4-oxadiazol-2-yl)(4-(7-(trifluoromethyl)pyrazolo [1,5-a]pyridin-2-yl)-6,7-dihydro-1H-imidazo[4,5-c]pyridin-5(4H)-yl)methanone], the AC50 lay within 1000 to 5000 nM.

For the molecule `O=C(c1nnc(-c2cccnc2)o1)N1CCc2[nH]cnc2[C@H]1c1cc2ccccn2n1` [Example 1346, (S)-(4-(pyrazolo[1,5-a]pyridin-2-yl)-6,7-dihydro-1H-imidazo[4,5-c]pyridin-5(4H)-yl)(5-(pyridin-3-yl)-1,3,4-oxadiazol-2-yl)methanone], the concentration at half-maximal activity (AC50) lay in the range of 500 to 1000 nM.

As for `Cc1c(-c2nnc(C(=O)N3CCc4[nH]cnc4[C@@H]3c3cc4c(C(F)F)cccn4n3)o2)cnn1C` [Example 1349], the AC50 was greater than 5000 nM.

Take `CC(C)(F)c1nnc(C(=O)N2CCc3[nH]cnc3[C@H]2c2cc3c(C(F)F)cccn3n2)o1` [Example 1350, (S)-(4-(4-(difluoromethyl)pyrazolo[1,5-a]pyridin-2-yl)-6,7-dihydro-1H-imidazo [4,5-c]pyridin-5(4H)-yl)(5-(2-fluoropropan-2-yl)-1,3,4-oxadiazol-2-yl)methanone]: the concentration at half-maximal activity (AC50) was less than 500 nM.

Take `Cn1ccc(-c2nnc(C(=O)N3CCc4[nH]cnc4[C@@H]3c3cc4c(C(F)F)cccn4n3)o2)n1` [Example 1353, (R)-(4-(4-(difluoromethyl)pyrazolo[1,5-a]pyridin-2-yl)-6,7-dihydro-1H-imidazo [4,5-c]pyridin-5(4H)-yl)(5-(1-methyl-1H-pyrazol-3-yl)-1,3,4-oxadiazol-2-yl)methanone]: the AC50 was greater than 5000 nM.

Consider `Cc1ncccc1-c1nnc(C(=O)N2CCc3[nH]cnc3[C@H]2c2cc3c(Cl)cccn3n2)o1` [Example 1356, (S)-(4-(4-chloropyrazolo [1,5-a]pyridin-2-yl)-6,7-dihydro-1H-imidazo[4,5-c]pyridin-5(4H)-yl)(5-(2-methylpyridin-3-yl)-1,3,4-oxadiazol-2-yl)methanone], for which the AC50 is less than 500 nM.

As for `Cc1ncccc1-c1nnc(C(=O)N2CCc3[nH]cnc3[C@@H]2c2cc3c(Cl)cccn3n2)o1` [Example 1357, (R)-(4-(4-chloropyrazolo [1,5-a]pyridin-2-yl)-6,7-dihydro-1H-imidazo[4,5-c]pyridin-5(4H)-yl)(5-(2-methylpyridin-3-yl)-1,3,4-oxadiazol-2-yl)methanone], the AC50 is greater than 5000 nM.

For the molecule `O=C(c1nnc(-c2cnccn2)o1)N1CCc2[nH]cnc2[C@H]1c1cc2cccc(C(F)(F)F)n2n1` [Example 1361, (S)-(5-(pyrazin-2-yl)-1,3,4-oxadiazol-2-yl)(4-(7-(trifluoromethyl)pyrazolo [1,5-a]pyridin-2-yl)-6,7-dihydro-1H-imidazo[4,5-c]pyridin-5(4H)-yl)methanone], the AC50 is 500 to 1000 nM.

For `O=C(c1nnc(-c2cnccn2)o1)N1CCc2[nH]cnc2[C@H]1c1cc2ccccn2n1` [Example 1362, (S)-(5-(pyrazin-2-yl)-1,3,4-oxadiazol-2-yl)(4-(pyrazolo[1,5-a]pyridin-2-yl)-6,7-dihydro-1H-imidazo[4,5-c]pyridin-5(4H)-yl)methanone], the concentration at half-maximal activity (AC50) was 500 to 1000 nM.

With `Cc1ncccc1-c1nnc(C(=O)N2CCc3[nH]cnc3[C@H]2c2cc3ccccn3n2)o1` [Example 1364], the AC50 was less than 500 nM.

As to `Cc1ncccc1-c1nnc(C(=O)N2CCc3[nH]cnc3[C@@H]2c2cc3ccccn3n2)o1` [Example 1365, (R)-(5-(2-methylpyridin-3-yl)-1,3,4-oxadiazol-2-yl)(4-(pyrazolo[1,5-a]pyridin-2-yl)-6,7-dihydro-1H-imidazo[4,5-c]pyridin-5(4H)-yl)methanone], the concentration at half-maximal activity (AC50) is greater than 5000 nM.

As to `Cc1c(-c2nnc(C(=O)N3CCc4[nH]cnc4[C@@H]3c3cc4cccc(C(F)F)n4n3)o2)cnn1C` [Example 1367, (R)-(4-(7-(difluoromethyl)pyrazolo[1,5-a]pyridin-2-yl)-6,7-dihydro-1H-imidazo[4,5-c]pyridin-5(4H)-yl)(5-(1,5-dimethyl-1H-pyrazol-4-yl)-1,3,4-oxadiazol-2-yl)methanone], the concentration at half-maximal activity (AC50) lay within 1000 to 5000 nM.

On to `Cn1nc(C(F)F)cc1C(=O)N1CCc2[nH]cnc2[C@H]1c1cc2c(Cl)cccn2n1` [Example 1368, (S)-(4-(4-chloropyrazolo [1,5-a]pyridin-2-yl)-6,7-dihydro-1H-imidazo[4,5-c]pyridin-5(4H)-yl)(3-(difluoromethyl)-1-methyl-1H-pyrazol-5-yl)methanone], for which the AC50 was less than 500 nM.

As to `Cn1nc(C(F)F)cc1C(=O)N1CCc2[nH]cnc2[C@H]1c1cc2c(C(F)F)cccn2n1` [Example 1372, (S)-(3-(difluoromethyl)-1-methyl-1H-pyrazol-5-yl)(4-(4-(difluoromethyl)pyrazolo [1,5-a]pyridin-2-yl)-6,7-dihydro-1H-imidazo[4,5-c]pyridin-5(4H)-yl)methanone], the half-maximal activity concentration (AC50) is less than 500 nM.

As to `Cn1nc(C(F)F)cc1C(=O)N1CCc2[nH]cnc2[C@@H]1c1cc2c(C(F)F)cccn2n1` [Example 1373, (R)-(3-(difluoromethyl)-1-methyl-1H-pyrazol-5-yl)(4-(4-(difluoromethyl)pyrazolo [1,5-a]pyridin-2-yl)-6,7-dihydro-1H-imidazo[4,5-c]pyridin-5(4H)-yl)methanone], the AC50 is 1000 to 5000 nM.

As for `O=C(c1nnc(-c2ccn(C(F)F)n2)o1)N1CCc2[nH]cnc2[C@@H]1c1cc2c(C(F)F)cccn2n1` [Example 1376, (R)-(5-(1-(difluoromethyl)-1H-pyrazol-3-yl)-1,3,4-oxadiazol-2-yl)(4-(4-(difluoromethyl)pyrazolo[1,5-a]pyridin-2-yl)-6,7-dihydro-1H-imidazo[4,5-c]pyridin-5(4H)-yl)methanone], the AC50 is greater than 5000 nM.

Take `Cc1cccc(-c2nnc(C(=O)N3CCc4[nH]cnc4[C@H]3c3cc4ccccn4n3)o2)n1` [Example 1382, (S)-(5-(6-methylpyridin-2-yl)-1,3,4-oxadiazol-2-yl)(4-(pyrazolo[1,5-a]pyridin-2-yl)-6,7-dihydro-1H-imidazo[4,5-c]pyridin-5(4H)-yl)methanone]: the AC50 is less than 500 nM.
